This is an account of results in ChEMBL document CHEMBL2321861, “Multifunctional radical quenchers for the treatment of mitochondrial dysfunction” (ACS Med Chem Lett, 2013).

Experiment [1] in a line: Antioxidant activity assessed as suppression of lipid peroxidation at 1 uM relative to control. It counts as functional.
Experiment [2] is described as follows: Antioxidant activity assessed as suppression of lipid peroxidation at 5 uM relative to control. It counts as functional.
Experiment [3] in a line: Inhibition of NADH oxidase (unknown origin) at 5 uM relative to control. The settings on record: Homo sapiens.
A short description of experiment [4]: Inhibition of NADH oxidase (unknown origin) at 1 uM relative to control. The settings on record: Homo sapiens.

Turning to `CCCCCCCCCCc1c(C)n(O)c(C)c(Br)c1=O`, the Activity in experiment [1] and in experiment [2] was 0% in each case.
A word on the inhibition: it is the percentage by which the read-out fell short of the control. High values mean strong suppression, low ones little suppression. With `CCCCCCCc1c(C)n(O)c(C)c(C(C)=O)c1=O`, the Activity in experiment [1] worked out at 11%; in experiment [2], 2.2%. Also, the figures for the inhibition in experiment [3] and in experiment [4] were 44.5% and 74.5%, respectively.
Turning to `CCCCCCCCCCc1c(C)n(O)c(C)cc1=O`, the Activity in experiment [1] and in experiment [2] was 0% in each case.
Take `CCCCCCCc1c(C)n(O)c(C)c(Br)c1=O`: the Activity in experiment [1] and in experiment [2] was 0% in each case.
As to `CCCCCCCCCCc1c(C)n(O)c(C)c(Cl)c1=O`, the Activity in experiment [1] and in experiment [2] was 0% throughout.
Regarding `CCCCCCCc1c(C)n(O)c(C)c(N)c1=O`, the Activity turned out to be 14% in experiment [1] and 9.6% in experiment [2]. Further, the inhibition in experiment [3] stood at 76.7%; in experiment [4] it was 92.9%.
On the same counts, the results for `CCCCCCCCCCCCCCCCc1c(C)n(O)c(C)c(N)c1=O` are 18%, 94%, 12.7% and 17.1%.
For the compound `CCCCCCCCCCCCCCCCc1c(C)n(O)c(C)cc1=O`, the Activity in experiment [1] was found to be 10%; in experiment [2] it was 20%.
Take `C=Cc1c(C)n(O)c(C)c(CCCCCCC)c1=O`: the Activity in experiment [1] and in experiment [2] was 0% each time. The inhibition in experiment [3] is 20.7%; in experiment [4] it was 29.7%.
On to `CCCCCCCc1c(C)n(O)c(C)c(Cl)c1=O`, for which the Activity in experiment [1] and in experiment [2] was 0% throughout.
For `C=Cc1c(C)n(O)c(C)c(CCCCCCCCCCCCCCCC)c1=O`, the Activity in experiment [1] was determined as 7%; in experiment [2], 13%. For the same compound, the inhibition was found to be 12% in experiment [3] and 20.1% in experiment [4].
`CCCCCCCCCCCCCCCCc1c(C)n(O)c(C)c(Br)c1=O`: the Activity in experiment [1] turned out to be 7%; in experiment [2], 15%.
For `CCCCCCCc1c(C)n(O)c(C)cc1=O`, the Activity in experiment [1] and in experiment [2] was 0% throughout.
